Assays:
iPSC-BMECs = assay: Biphalin uptake studies in iPSC-BMECs; type: in vitro ADME, human
Procedure: (§1) We measured the level of biphalin in cell lysate (uptake studies) and transport buffer (transport studies) while using our developed, highly sensitive LC-MS/MS method. Briefly, biphalin was extracted from the samples by the addition of acetonitrile (1:2) containing 10 ng/mL internal standard, [D-Ala^2] Leucine Enkephalin (Sigma-Aldrich, St. Louis, MO, USA). After 1-min. vortexing, the mixture is centrifuged at 10,000 rpm for 10 min. After that the supernatant is mixed with an equivalent volume of LCMS water and then loaded into the insert vials ready for the analysis. The UHPLC-MS/MS system equipped with AB SCIEX QTRAP® 5500 mass spectrometer (Foster City, CA, USA) attached to a Nexera ultra high performance liquid chromatography (UHPLC) system from Shimadzu Corporation (Columbia, MD, USA) was used. Data acquisition and quantification were performed by Analyst software 1.7.0.
(§2) Chromatographic separation was then performed with a Kinetex C18 column (50 × 2.1mm, 1.8 μm, Phenomenex, Torrance, CA, USA) while using mobile phases, 0.1% formic acid in water and 0.1% formic acid in acetonitrile. The gradients of acetonitrile (10% at time zero, 31% at 2.5 min., 90% at 2.6 min. up to 3.6, followed by 10% at 3.7 min. up to 4.5 min.) were used to elute biphalin at a flow rate of 0.4 mL/min. Column temperature was maintained at 45 °C. The retention time of biphalin was ∼1.8 min. while the retention time for the internal standard (IS) was ∼2.2 min. Multiple reaction monitoring was conducted in […], and the transitions for biphalin and internal standard were 455.2 → 136.2 m/z and 570.3 → 120.3 m/z, respectively. The collision energy for biphalin and IS was 40 and 45 volts, respectively.
Differentiated BMECs (iPSC-BMECs) are seeded in 12-well plates, incubated with either biphalin (10 µg/mL) (control) or pre-incubated with OATP1 substrate, estrone-3-sulfate (E3S) (10 µM) for 10 min., followed by co-incubation of E3S and 10 µg/mL biphalin in the 37 °C incubator for 20 min. The incubation time, 20 min. was selected to get detectable amount of biphalin in the cell extract. Next, the cells are washed two times with ice-cold phosphate buffered saline (PBS, pH 7.4). The cells were solubilized with 100 µL radioimmunoprecipitation assay (RIPA) Buffer (Thermo Fisher, Waltham, MA, USA) with protease and phosphatase inhibitor cocktail (Thermo Fisher, Waltham, MA, USA), and the amount of biphalin uptake was determined by using the above LCMS method. Protein content was calculated with a detergent-compatible bicinchoninic acid (BCA) assay (Pierce Chemical, Rockford, IL, USA). Biphalin uptake was normalized while using protein content and then presented as biphalin (ng) per µg of protein.
In vitro stroke conditions were simulated by exposing the cells to oxygen-glucose deprivation (OGD) conditions. Briefly, iPSC-BMECs were rinsed twice with Dulbecco’s Modified Eagle medium Solution (DMEM). The cells were incubated with DMEM media (without glucose) plus 1% of PDS [33]. Hypoxia (1% oxygen) was induced by placing the cells in a hypoxic polymer glove box (Coy Laboratories, Grayslake, MI, USA), which was infused with 95% N2 and 5% CO2 at 37 °C. Cells were exposed to OGD condition for 1 h, 2 h, and 6 h, followed by reperfusion with OGD media with glucose and sodium pyruvate. For reperfusion studies, the cells were incubated in the CO2 incubator for pre-determined timepoints, 30 min., 1 h, 2 h, and 6 h.

OATP1 = assay: Biphalin transcellular transport across iPSC-BMECs monolayer (transwell in vitro BBB model); type: in vitro ADME, human; settings: human; normoxic; E3S pre-incubated 30 min, both luminal and abluminal sides, then biphalin 10 µg/mL plus E3S; A-B; corrected for FITC-dextran 4 kD; LC-MS/MS; mean ± SD, n = 4; read-out: net permeability coefficient (PC) of biphalin, apical to basolateral, with E3S (converted)
Procedure: as §1, §2
(§3) Transport studies were performed to determine the role of OATP1 on the blood-to-brain transport of biphalin. Confluent iPSC-BMECs, (one million cells/insert) were seeded to the apical side of a 12-well transwell insert (area 1.12 cm^2, polyester), which is pre-coated with 400 µg/mL collagen and 100 µg/mL fibronectin [35]. 10 µg/mL biphalin and an equivalent concentration of FITC-dextran (4kD) were added to the apical compartment. For studies using an inhibitor and OATP1 substrate, E3S was pre-incubated for 30 min., followed by incubation with biphalin and E3S [11]. E3S was added to both the luminal and abluminal sides to inhibit the transporters on both sides. The results were expressed as a net permeability coefficient (PC) after subtracting the PC of FITC-dextran from the PC of biphalin.
(§4) In vitro stroke conditions were simulated by exposing the cells to oxygen-glucose deprivation (OGD) conditions. […] For reperfusion studies, the cells were incubated in the CO2 incubator for pre-determined timepoints, 30 min., 1 h, 2 h, and 6 h.

iPSC-BMECs monolayer = assay: as above; type: in vitro ADME, human
Procedure: as §1, §2, §3, §4

[1] = cited from earlier work
Source text: Our lab has communicated several studies that reported the neuroprotective potential of biphalin, an ultra-potent, non-selective, opioid agonist, in models of both permanent and transient ischemic stroke.

Structure (SMILES): C[C@@H](NC(=O)[C@@H](N)Cc1ccc(O)cc1)C(=O)NCC(=O)N[C@@H](Cc1ccccc1)C(=O)NNC(=O)[C@H](Cc1ccccc1)NC(=O)CNC(=O)[C@@H](C)NC(=O)[C@@H](N)Cc1ccc(O)cc1 [biphalin]
- biphalin uptake (iPSC-BMECs; 2 h OGD + 6 h reperfusion, LC-MS/MS, mean ± SD, n = 4): 2.5 ± 0.2 ng/µg
- biphalin uptake (iPSC-BMECs; 6 h OGD + 30 min reperfusion, LC-MS/MS, mean ± SD, n = 4): 2 ± 0.25 ng/µg
- biphalin uptake (iPSC-BMECs; 6 h OGD + 6 h reperfusion): decreased to the basal normoxic level
- biphalin uptake (iPSC-BMECs; after 1 h OGD, biphalin 10 µg/mL, 20 min, LC-MS/MS, mean ± SD, n = 4): 1.31 ± 0.2 ng/µg
- increase of biphalin uptake compared to normoxic conditions (iPSC-BMECs; after 2 h OGD exposure (1% oxygen, no glucose), n = 4): 2.8 fold
- biphalin uptake (iPSC-BMECs; after 2 h OGD, biphalin 10 µg/mL, 20 min, LC-MS/MS, mean ± SD, n = 4): 1.89 ± 0.015 ng/µg
- increase of biphalin uptake compared to normoxic conditions (iPSC-BMECs; after 6 h OGD exposure (1% oxygen, no glucose), n = 4): 2.4 fold
- biphalin uptake (iPSC-BMECs; after 6 h OGD, biphalin 10 µg/mL, 20 min, LC-MS/MS, mean ± SD, n = 4): 1.64 ± 0.15 ng/µg
- average reduction of biphalin uptake by E3S pre-incubation (iPSC-BMECs; average over selected OGD and OGD-reperfusion timepoints (2 h OGD, 6 h OGD, 2 h OGD + 6 h R, 6 h OGD + 30 min R), n = 3): 26.59 ± 8.01%
- reduction of biphalin uptake by E3S (iPSC-BMECs; normal (normoxic) conditions, E3S 10 µM): approximately 23%
- biphalin uptake (iPSC-BMECs; normoxic, without E3S, biphalin 10 µg/mL, 20 min, 37 °C, cell lysate (RIPA), LC-MS/MS, normalized to protein (BCA), mean ± SD, n = 4): 0.49 ± 0.05 ng of biphalin per 1 ug of protein
- biphalin uptake with E3S (iPSC-BMECs; normoxic, E3S (OATP1 substrate) 10 µM pre-incubated 10 min, then co-incubated with biphalin 10 µg/mL 20 min, 37 °C, LC-MS/MS, mean ± SD, n = 4): 0.37 ± 0.05 ng/ug protein
- Papp A→B at 10 µg/mL (OATP1): 56.7 nm/s
- average reduction of biphalin transport in the presence of E3S (iPSC-BMECs monolayer; A-B, average over OGD and OGD-reperfusion timepoints, E3S pre-treated 30 min, n = 3): 37.96 ± 12.51%
- transport of biphalin from basolateral to apical side (B to A) (iPSC-BMECs monolayer; B-A, to determine the role of P-gp or other efflux mechanisms, data not shown): negligible
- reduction of biphalin transport by E3S (iPSC-BMECs monolayer; normal (normoxic) conditions, A-B, E3S pre-incubated 30 min): ~40%
- injected dose accumulated in the brain [1]: 0.05%

Reference: publication PMC6781285, “Brain Delivery of a Potent Opioid Receptor Agonist, Biphalin during Ischemic Stroke: Role of Organic Anion Transporting Polypeptide (OATP)” (Pharmaceutics, 2019)
